Test results taken from patent US12281301B2, “Sequencing-based proteomics” (THE BROAD INSTITUTE, INC., priority 2018, dated 2025).
Entries after “also recorded” stand apart in the source; their conditions may differ. Peptide text beside a SMILES is read from it. * marks the point of attachment. Cbz = O=C(OCc1ccccc1)*

How the values were obtained:
Type in all cases: cell-based, human
[1] = tested on: HEK293T cells; assay: TMT labeling whole proteome mass spectrometry, drug-treated versus untreated control cells
Protocol: Mass spectrometry. Cells were grown and stimulated in 10 cm dishes, washed three times in cold PBS, and scraped into 1 ml 8 M urea in water per dish. Protein content of the lysates was quantified using Pierce 660 reagent and a NanoDrop spectrometer. Samples were reduced, iodoacetamide alkylated, digested with Trypsin, labeled with 10-plex TMT (VWR cat no PI90110), and combined. After SPE clean-up and volume reduction by SpeedVac, the combined sample was run on a C18 reverse phase LC using a pH 10 A buffer, and eight fractions were collected. The volume was reduced to 20 μl by SpeedVac. Each fraction was run on an EASY nLC HPLC attached to a Thermo QE-HFX mass spectrometer in nanospray configuration using a 90 minutes acquisition time. Proteins were quantified using the MaxQuant software package.
Statistical analysis. Mass spectrometry reporter intensity data were imported into Perseus software, log-2-transformed, and filtered for missing values as well as reverse peptides or potential contaminants. Data were median-subtracted and significant outliers were determined by performing two-sided unpaired t-tests, correcting for multiple testing using an FDR=5% and s0=0.1, performing 250 randomizations. PATTERNS mean protein level bin data were processed in the same way except without the filtering and normalization steps. Volcano plots were generated using the Perseus software, and all other plots were created using custom code.

[2] = tested on: HEK293T cells; assay: Immunoblotting validation of predicted drug-regulated proteins; settings: time points after drug treatment
Protocol: Immunoblotting. Cells were lysed in 6-well plates in 400 μl 2×LDS buffer (Thermo) supplemented with 2×Bolt reducing agent (Thermo), heated to 95° C. for 15 minutes, and cooled on ice. 9 μl lysate was loaded per lane of Bolt 4-12% Bis-Tris Plus gels (Thermo) and run at 100 V for 1:15 h. Blotting was performed using the iBlot PVDF kit (Thermo) and program P-3 for 4 minutes. After blocking for 1 h in TBST 5% BSA, primary antibodies were bound over night at 4° C. in TBST 5% BSA. After triple washing, HRP-conjugated secondary antibodies (Cell Signaling Technology) were bound at 1:5000 dilution in TBST 5% BSA for 1 h at room temperature. Blots were imaged using Pierce ECL (Thermo) on a Chemidoc luminescence imager (Biorad). Primary antibodies used were: RBM39 clone 4G8 (Novus Biologicals), DDIT4 clone EPR18716 (Abcam), BRD2 clone D89B4 (Cell Signaling Technology), RRM2 clone 1E1 (Sigma), HRP-coupled beta-Actin clone 13E5 (Cell Signaling Technology), and cell cycle antibody cocktail (ab136810, Abcam).

[3] = tested on: HEK293T cells; assay: RNA-sequencing transcript expression, drug-treated versus untreated control cells
Protocol: RNA-seq. Whole-cell RNA was purified using an RNeasy Plus Mini Kit (Qiagen). Poly (A) mRNA was enriched using the Poly(A) mRNA Magnetic Isolation Module (NEB). Sequencing libraries were prepared using the NEBNext Ultra II Directional RNA Library Prep kit (NEB), quantified using a NanoDrop (Thermo), and sequenced on the NextSeq sequencer (Illumina). Reads were aligned to the human genome and gene expression was quantified using the online tool BrowserGenome.org (Schmid-Burgk, J. L. & Hornung, V. BrowserGenome.org: web-based RNA-seq data analysis and visualization. Nat Methods 12, 1001, doi: 10.1038/nmeth.3615 (2015)).

[4] = tested on: library of tagged HEK293T cells; assay: SBP/PATTERNS protein quantification (FACS binning and tag/barcode sequencing) of drug-treated versus untreated control cells; settings: for number of proteins significantly affected, by PATTERNS: 6 hours stated for Bortezomib
Protocol: Library-scale RNP-mediated gene tagging. On day one, 18 million HEK293T NeoR-KO cells were plated per 15-cm dish into 32 dishes. On day two, 4 ml of scaled-up transfection mix (see above) were gently added per dish. On day seven, cells were trypsinized and re-plated in media containing 300 μg/ml G418 (Invivogen). The selection media was changed every 4-8 days. On day 25, the library was pre-enriched for detectable fluorescence by FACS sorting, gating on the top-30% mNeon-positive population. The library was expanded for a week and frozen for future use.
Transposition-based Tag Integration Site Sequencing (TTISS). 800,000 cells were resuspended in 80 μl direct lysis buffer (1 mM CaCl2), 3 mM MgCl2, 1 mM EDTA, 1% Triton X-100, 10 mM Tris pH 7.5, 0.2 mg/ml Proteinase K), lysed at 65° C. for 10 minutes, and kept on ice or frozen at −20° C. 25 μl 5×TAPS buffer (50 mM TAPS-NaOH pH 8.5, 25 mM MgCl2), and 21 μl transposon-loaded Tn5 (16 mg/ml, produced as described in Picelli, S. et al. Tn5 transposase and tagmentation procedures for massively scaled sequencing projects. Genome Res 24, 2033-2040, doi: 10.1101/gr.177881.114 (2014), titrated batch-wise for optimal fragment sizes) were added, mixed well, and incubated at 55° C. for 10 minutes. The reaction was mixed with 625 μl buffer PB (Qiagen) and purified using a plasmid miniprep column (Qiagen). Typical yields were 15 μg per column. The tagmentation size distribution was verified on an agarose gel to range from 200 bp to 1 kb. All DNA from a single column was used as template in a 300 μl KOD extreme hot start PCR (Roche) with primers TTISS-mNeon-fwd1 and Tn5-Loading-R2 (Table 1), 12 cycles, Ta=60° C. 6 μl of PCR reaction was used as template in a secondary 50 μl KOD extreme hot start PCR with a unique combination of barcoded primers TTISS-mNeon-fwd2-D50× and TTISS-rev2-D70x(Table 1), 20 cycles, Ta=65° C. Barcoded PCRs were pooled on ice, purified using a PCR column (Qiagen), and run on an agarose gel. Products of 250 bp-1 kb were excised, purified using a gel purification kit (Qiagen), and re-purified using a PCR column (Qiagen). Samples were quantified using a NanoDrop spectrometer and sequenced using a NextSeq High Output kit (Illumina) with 30% PhiX spike-in and the following read settings: 120 cycles read 1, 25 cycles read 2, 8 cycles index 1, and 8 cycles index 2.
Alternatively, 22 bp forward (fwd) reads and 8 bp reverse (rev) reads were aligned to 1 kb windows of the human genomic sequence (hg38) upstream of gRNA target sites not allowing mismatches, and hits were filtered to be in-frame with the annotated ORF (RefSeq). For gRNA-wise protein quantification, counts per gRNA from six adjacent sorted bins were used to calculate the weighted mean bin and variance. For UMI-based evaluation, a dictionary of UMIs was created per sequencing run by calculating a 28-bit hash of nine UMI bases together with one constant donor base and 22 target bases from successfully aligned fwd reads using the same alignment parameters as for gRNA-wise protein quantification. The hash was used to count UMI occurrences and store UMI sequence/target information in an array with typically below 10 conflicts per run. UMIs were collapsed with an edit distance of 1 in order to account for sequencing errors. The UMI dictionary was used to count bin- and UMI-wise reads using the same hash function. Counts per UMI from six adjacent sorted bins were used to calculate the weighted mean bin and variance. All software was written as interactive web tools in JavaScript and will be available through GitHub.
FACS sorting. Cells were trypsinized, washed in FluoroBrite DMEM Media (Thermo) and sorted using a Sony MA900 (where not denoted otherwise) or a MoFlo Astrios sorter (for […], SKMEL28 screens) using a 488 nm laser. Cells were collected in 1 ml growth medium and kept on ice until pelleting and lysis.
De-convolution of sorted libraries using Silent Barcode Sequencing. […]

[5] = tested on: clonal mNeon-tagged reporter cell lines; assay: FACS of clonal mNeon-tagged reporter cell lines after drug stimulation
Protocol: (§1) Analytical flow cytometry. For optional genomic DNA staining, 1/20 volume of Hoechst 33342 (10 mg/ml, Thermo) was added to live cells for 15 minutes at 37° C. Cells were washed in PBS, trypsinized, resuspended in media, and analyzed on a CytoFLEX (Beckman Coulter) in 96-well plate mode.

[6] = tested on: MSH6; assay: MSH6-mNeonGreen reporter cell line assayed by FACS; settings: for MSH6-mNeonGreen expression after application of single compounds: single compounds at 125 nM for 6 h
Protocol: as §1

[7] = tested on: PRKDC; assay: PRKDC-mNeonGreen reporter cells assayed by FACS; settings: 125 nM, indicated time points
Protocol: as §1

[8] = drug-treated vs untreated control cells

CC(C)C[C@H](NC(=O)[C@H](Cc1ccccc1)NC(=O)c1cnccn1)B(O)O [Bortezomib]
DDIT4 quantification by quantitative mass spectrometry [1, 8]: failed to quantify | outlier / upregulated proteins by TMT whole proteome mass spectrometry ([1]; drug-treated vs untreated control cells, triplicate): ATF3 and JUN; also recorded: two upregulated proteins | DDIT4 increase validated by western blot [2]: confirmed | PATTERNS hits DDIT4, ID1, ID2 and JUN validated by western blot [2]: confirmed | DDIT4 identification as target by RNA-Seq [3, 8]: could not identify | PATTERNS hits regulated at the transcript level (RNA-sequencing) ([3]; of the 55 PATTERNS hits): only GADD45B | DDIT4 level by PATTERNS ([4]; HEK293T library, 6 hours, change may be non-specific): affected | number of proteins significantly affected, by PATTERNS ([4]; HEK293T library): 55 proteins | DDIT4 level change (mean protein expression bin) by SBP ([4]; topmost change, not statistically significant in the SBP data): +1.6 bins | PATTERNS hits DDIT4, ID1, ID2 and JUN validated by FACS of reporter cell lines [5]: confirmed | DDIT4 regulation in clonal mNeon-tagged reporter cell line by FACS ([5]; stimulated for six hours): confirmed

NS(=O)(=O)c1ccc(S(=O)(=O)Nc2cccc3c(Cl)c[nH]c23)cc1 [Indisulam]
RBM39 down-regulation by TMT whole proteome mass spectrometry ([1]; strong but not statistically significant hit): 2 fold | RBM39 depletion validated by western blot [2]: confirmed | RBM39 RNA level [3, 8]: no significant change | effect size of the next potentially depleted protein by SBP ([4]; drug vs DMSO control, comparison with RBM39): −0.37 bins | RBM39 effect size (change of mean protein expression bin) by SBP ([4]; drug vs DMSO control, six sorted expression bins, two replicate runs): −2.1 bins | RBM39 protein level change by SBP/PATTERNS ([4]; drug-treated vs control tagged library): highly specific depletion | significantly depleted proteins by SBP/PATTERNS (specificity) ([4]; two replicates, FDR 5%): only significantly depleted protein | RBM39 depletion validated by FACS of a clonal reporter cell line ([5]; stimulated for six hours): confirmed

CCc1c(O)cc(O)c(C(=O)c2ccc(OCCN3CCOCC3)c(OC)c2)c1CC(=O)N(CCOC)CCOC.Cl [KW-2478]
MSH6-mNeonGreen expression after application of single compounds [6]: downregulation

CC(C)C[C@@H](C=O)NC(=O)[C@H](CC(C)C)NC(=O)[C@H](CC(C)C)NC(=O)OCc1ccccc1 [MG-132] (Cbz-Leu-Leu-Leu-aldehyde)
DDIT4 regulation in clonal mNeon-tagged reporter cell line by FACS ([5]; stimulated for six hours): regulated

Cc1ncsc1-c1ccc(CNC(=O)[C@@H]2C[C@@H](O)CN2C(=O)[C@@H](NC(=O)COCCOCCOCCNC(=O)C[C@@H]2N=C(c3ccc(Cl)cc3)c3c(sc(C)c3C)-n3c(C)nnc32)C(C)(C)C)cc1 [MZ-1]
BRD4 in mass spectrometry analysis ([1]; BRD4 not represented in the SBP library): not statistically significant hit | BRD2 down-regulation by mass spectrometry ([1]; strong albeit not statistically significant hit): 2.3 fold | BRD2 decrease validated by western blot [2]: confirmed | BRD2 identification by RNA-Seq [3, 8]: could not be identified | BRD protein family members degraded, by PATTERNS ([4]; HEK293T library): degradation of two BRD protein family members, BRD2 and BRD3 | number of proteins significantly affected, by PATTERNS ([4]; HEK293T library): 20 proteins | BRD2 protein level change by SBP ([4]; drug vs DMSO control): significant decrease | BRD2 decrease validated by FACS of clonal reporter cell line ([5]; stimulated for six hours): confirmed

CC1(C)CC(=O)c2c(C(F)(F)F)nn(-c3ccc(C(N)=O)c(N[C@H]4CC[C@H](O)CC4)c3)c2C1 [SNX2112, SNX-2112]
kinetics of the reduction of MSH6 levels ([6]; 125 nM, indicated time points): significant depletion in MSH6 levels in under two hours | MSH6-mNeonGreen expression after application of single compounds [6]: downregulation | kinetics of the reduction of PRKDC levels [7]: also observed

CC1(C)CC(=O)c2c(C(F)(F)F)nn(-c3ccc(C(N)=O)c(N[C@H]4CC[C@H](OC(=O)CN)CC4)c3)c2C1 [SNX-5422]
MSH6-mNeonGreen expression after application of single compounds [6]: downregulation
